Results from US20020187514A1 (priority 1999, published 2002).
Counter-ions that a name gives are not always drawn.

Experiments:
[1] = target: Potassium Channel, Ca2+ Act., VI; assay: Potassium Channel, Ca2+ Act., VI; [125I]Apamin; format: binding; conditions: reference compound, QA/QC; read-out: Ref Kj
Leukotrine D4, LTB4 = assay: Leukotrine D4, LTB4; [3H]LTD4; format: binding; conditions: reference compound, QA/QC; read-out: Ref Kj
Serotonin, 5HT3 = Serotonin, 5HT3 (Mus musculus, UniProt P23979); assay: biochemical; format: binding
Sequence of Serotonin, 5HT3 (P23979 24-489): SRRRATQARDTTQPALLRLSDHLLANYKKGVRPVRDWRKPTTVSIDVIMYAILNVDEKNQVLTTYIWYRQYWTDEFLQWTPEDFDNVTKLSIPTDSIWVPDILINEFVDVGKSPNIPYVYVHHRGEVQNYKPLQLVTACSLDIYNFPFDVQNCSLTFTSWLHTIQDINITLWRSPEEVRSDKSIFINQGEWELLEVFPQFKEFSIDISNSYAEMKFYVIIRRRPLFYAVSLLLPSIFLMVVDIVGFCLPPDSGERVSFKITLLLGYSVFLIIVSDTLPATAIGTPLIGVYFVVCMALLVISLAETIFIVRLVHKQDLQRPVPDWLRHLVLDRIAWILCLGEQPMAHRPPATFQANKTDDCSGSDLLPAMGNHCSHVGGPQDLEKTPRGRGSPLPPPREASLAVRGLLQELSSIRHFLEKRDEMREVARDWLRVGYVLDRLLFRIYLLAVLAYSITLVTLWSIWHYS

Leukotrine B4, LTB4 = assay: Leukotrine B4, LTB4; [3H]LTB4; format: binding; conditions: reference compound, QA/QC; read-out: Ref Kj
Glutamate Transport = assay: Glutamate Transport; [3H]Glutamic Acid; format: biochemical; conditions: read-out: Ref Kj
Neurokinin, NK1 = format: binding; conditions: read-out: Ref Kj
[2] = target: Glutamic Acid Decarboxylase; assay: Glutamic Acid Decarboxylase; substrate [14C]Glutamic acid; format: biochemical; conditions: read-out: Ref Kj
[3] = target: Protein Phosphatase, PP2A (Homo sapiens, UniProt P67775); assay: Protein Phosphatase, PP2A (Human); substrate DiFMUP; format: biochemical; conditions: reference compound, QA/QC; read-out: Ref Kj
Sequence of Protein Phosphatase, PP2A (P67775 whole entry): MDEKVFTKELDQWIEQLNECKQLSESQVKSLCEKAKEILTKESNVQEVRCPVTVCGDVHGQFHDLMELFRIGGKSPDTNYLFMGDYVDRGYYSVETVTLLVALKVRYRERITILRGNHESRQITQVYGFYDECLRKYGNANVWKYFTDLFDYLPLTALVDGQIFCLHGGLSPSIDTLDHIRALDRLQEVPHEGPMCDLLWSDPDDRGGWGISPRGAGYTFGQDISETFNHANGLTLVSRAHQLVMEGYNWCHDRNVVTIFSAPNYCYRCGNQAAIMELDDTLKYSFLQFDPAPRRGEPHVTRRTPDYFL

[4] = target: Choline Acetyltransferase; assay: Choline Acetyltransferase; substrate [14C]Acetyl Coenzyme; format: biochemical; conditions: reference compound, QA/QC; read-out: Ref Kj
[5] = target: T1, Platelet Activating Factor, PAF (Oryctolagus cuniculus, UniProt G1TEI7); assay: Platelet Activating Factor, PAF; [3H]Hexadecyl, PAF; format: binding; conditions: reference compound, QA/QC; read-out: Ref Kj
T1 construct: no other source notation after assay name denotes animal cell or animal tissue source; from tissue
T1 sequence (G1TEI7 entry or part of it): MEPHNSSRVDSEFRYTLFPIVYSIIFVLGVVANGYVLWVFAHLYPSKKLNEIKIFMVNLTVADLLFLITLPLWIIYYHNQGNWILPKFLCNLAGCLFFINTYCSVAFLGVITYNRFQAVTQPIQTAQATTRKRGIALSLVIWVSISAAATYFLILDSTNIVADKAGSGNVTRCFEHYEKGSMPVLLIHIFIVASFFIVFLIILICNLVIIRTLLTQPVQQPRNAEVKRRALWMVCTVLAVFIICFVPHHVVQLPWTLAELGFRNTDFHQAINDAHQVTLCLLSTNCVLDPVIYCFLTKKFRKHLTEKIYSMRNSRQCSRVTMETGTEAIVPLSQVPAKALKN

[6] = target: Vasoactive Intestine Peptide, Non-selective; format: binding; conditions: read-out: Ref Kj
[7] = target: T2, Monoamine Oxidase A, Peripheral (Rattus norvegicus, UniProt P21396); assay: biochemical; conditions: reference compound, QA/QC; read-out: Ref Kj
T2 construct: no other source notation after assay name denotes animal cell or animal tissue source; from tissue
T2 sequence (P21396 whole entry, looked up): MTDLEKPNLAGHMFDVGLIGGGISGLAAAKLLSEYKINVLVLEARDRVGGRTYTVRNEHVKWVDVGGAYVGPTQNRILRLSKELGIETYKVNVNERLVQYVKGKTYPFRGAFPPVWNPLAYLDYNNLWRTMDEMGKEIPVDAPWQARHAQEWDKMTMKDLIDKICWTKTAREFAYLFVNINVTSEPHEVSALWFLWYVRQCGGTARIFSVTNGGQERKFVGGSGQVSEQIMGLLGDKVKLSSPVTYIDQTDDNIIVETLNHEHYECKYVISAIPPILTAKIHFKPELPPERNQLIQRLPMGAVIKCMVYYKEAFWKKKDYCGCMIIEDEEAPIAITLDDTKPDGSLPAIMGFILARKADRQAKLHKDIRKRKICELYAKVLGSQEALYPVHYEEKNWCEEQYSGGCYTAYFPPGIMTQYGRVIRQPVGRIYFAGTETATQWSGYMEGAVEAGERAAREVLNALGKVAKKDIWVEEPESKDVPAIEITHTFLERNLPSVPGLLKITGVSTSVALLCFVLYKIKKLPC

[8] = target: Thyrotropin Releasing Hormone, TRH; assay: Thyrotropin Releasing Hormone, TRH; [3H]-(3MeHis2)TRH; format: binding; conditions: reference compound, QA/QC; read-out: Ref Kj
Sigma 1 = target: T3, Sigma 1 (Cavia porcellus, UniProt Q60492); assay: Sigma 1; [3H]-(+)-Pentazocine; format: binding, guinea pig; conditions: reference compound, QA/QC; read-out: Ref Kj
T3 construct: Fresh guinea pig whole brain was obtained following decapitation; from tissue; host or cells: guinea pig whole brain membranes
T3 sequence (Q60492 whole entry): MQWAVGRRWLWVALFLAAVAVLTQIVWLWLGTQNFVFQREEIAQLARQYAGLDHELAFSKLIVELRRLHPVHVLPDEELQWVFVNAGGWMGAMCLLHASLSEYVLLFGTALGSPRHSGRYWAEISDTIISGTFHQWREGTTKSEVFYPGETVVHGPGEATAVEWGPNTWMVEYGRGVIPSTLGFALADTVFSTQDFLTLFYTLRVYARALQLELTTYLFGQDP

[9] = target: Somatostatin, Non-selective; assay: Somatostatin, Non-selective; [125]-Somatostatin-14 (Tyr11); format: binding; conditions: reference compound, QA/QC; read-out: Ref Kj
Elastase = target: T4, Elastase (Homo sapiens, UniProt P08246); assay: Elastase (Human); substrate MeO-Suc-Ala-Ala-Pro-Val-pNA; format: biochemical; conditions: reference compound, QA/QC; read-out: Ref Kj
T4 construct: from human cell lines; endogenous in cells
T4 sequence (P08246 30-267): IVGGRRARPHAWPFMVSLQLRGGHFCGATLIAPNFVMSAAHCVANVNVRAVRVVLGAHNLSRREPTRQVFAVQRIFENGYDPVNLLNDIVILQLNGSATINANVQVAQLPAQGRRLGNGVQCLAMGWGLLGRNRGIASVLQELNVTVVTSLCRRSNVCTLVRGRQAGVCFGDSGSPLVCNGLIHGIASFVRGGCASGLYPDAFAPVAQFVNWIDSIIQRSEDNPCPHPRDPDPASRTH

[10] = target: Protein Tyrosine Phosphatase, PTP-CD45 (Homo sapiens, UniProt P08575); assay: Protein Tyrosine Phosphatase, PTP-CD45 (Human); substrate pNPP; format: biochemical; conditions: read-out: Ref Kj
Sequence of Protein Tyrosine Phosphatase, PTP-CD45 (P08575 26-1306): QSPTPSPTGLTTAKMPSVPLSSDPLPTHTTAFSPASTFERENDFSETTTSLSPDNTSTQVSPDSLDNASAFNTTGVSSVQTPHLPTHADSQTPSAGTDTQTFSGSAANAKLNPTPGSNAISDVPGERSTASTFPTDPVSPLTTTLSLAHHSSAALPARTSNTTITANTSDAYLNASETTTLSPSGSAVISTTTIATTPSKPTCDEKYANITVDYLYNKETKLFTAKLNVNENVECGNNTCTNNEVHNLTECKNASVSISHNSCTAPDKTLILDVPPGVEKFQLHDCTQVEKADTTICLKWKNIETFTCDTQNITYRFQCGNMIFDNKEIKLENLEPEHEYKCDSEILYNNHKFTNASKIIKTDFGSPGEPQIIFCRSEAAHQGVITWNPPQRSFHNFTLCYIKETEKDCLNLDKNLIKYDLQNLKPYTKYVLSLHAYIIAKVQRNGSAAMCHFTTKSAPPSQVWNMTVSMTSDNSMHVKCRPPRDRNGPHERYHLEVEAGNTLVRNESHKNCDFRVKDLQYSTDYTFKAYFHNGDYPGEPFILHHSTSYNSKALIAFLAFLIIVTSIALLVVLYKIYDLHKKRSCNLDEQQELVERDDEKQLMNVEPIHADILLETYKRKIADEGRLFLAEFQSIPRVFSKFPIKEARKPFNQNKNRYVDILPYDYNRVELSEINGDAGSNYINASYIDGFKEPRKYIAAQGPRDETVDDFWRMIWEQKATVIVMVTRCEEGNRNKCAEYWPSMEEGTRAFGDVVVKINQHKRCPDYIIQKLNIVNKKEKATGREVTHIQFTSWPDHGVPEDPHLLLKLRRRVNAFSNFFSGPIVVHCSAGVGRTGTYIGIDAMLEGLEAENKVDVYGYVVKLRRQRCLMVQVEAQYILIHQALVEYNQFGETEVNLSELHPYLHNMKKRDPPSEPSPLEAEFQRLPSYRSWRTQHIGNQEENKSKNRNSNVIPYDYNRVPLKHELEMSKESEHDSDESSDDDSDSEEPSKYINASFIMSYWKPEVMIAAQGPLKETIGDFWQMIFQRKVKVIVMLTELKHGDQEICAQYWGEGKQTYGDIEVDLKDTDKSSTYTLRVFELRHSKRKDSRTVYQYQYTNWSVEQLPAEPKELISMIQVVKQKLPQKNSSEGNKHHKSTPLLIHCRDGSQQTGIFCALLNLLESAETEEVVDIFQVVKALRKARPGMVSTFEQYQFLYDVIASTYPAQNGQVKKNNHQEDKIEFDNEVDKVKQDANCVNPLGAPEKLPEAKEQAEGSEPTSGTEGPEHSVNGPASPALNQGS

[11] = target: T5, Protein Tyrosine Phosphatase, PTP-LAR-D1 (Homo sapiens, UniProt P10586); assay: Protein Tyrosine Phosphatase, PTP-LAR-D1 (Human); substrate pNPP; format: biochemical; conditions: read-out: Ref Kj
T5 construct: PTP-LAR-D1
T5 sequence (P10586 1352-1607): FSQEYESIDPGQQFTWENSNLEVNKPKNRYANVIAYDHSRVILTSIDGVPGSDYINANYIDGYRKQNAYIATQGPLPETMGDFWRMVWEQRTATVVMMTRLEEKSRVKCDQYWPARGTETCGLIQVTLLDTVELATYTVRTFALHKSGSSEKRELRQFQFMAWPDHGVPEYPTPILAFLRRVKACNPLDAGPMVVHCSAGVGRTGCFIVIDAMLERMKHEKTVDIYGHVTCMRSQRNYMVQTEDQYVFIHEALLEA

[12] = target: Protein Phosphatase, PP2B (Calcineurin); assay: Protein Phosphatase, PP2B (Calcineurin); substrate pNPP; format: biochemical; conditions: read-out: Ref Kj
[13] = test system: Protein Tyrosine Phosphatase, PTP-Cell; assay: Protein Tyrosine Phosphatase, PTP-Cell (Human); substrate pNPP; format: biochemical; conditions: read-out: Ref Kj
[14] = target: Protein Tyrosine Phosphatase, PTP-B; assay: Protein Tyrosine Phosphatase, PTP-B (Human); substrate pNPP; format: biochemical; conditions: read-out: Ref Kj
Calcium Channel, Type N = format: binding; conditions: read-out: Ref Kj
[15] = target: Adenosine Transport (cs + es); assay: Adenosine Transport (cs + es) (Human); [3H]-Adenosine; format: biochemical; conditions: reference compound, QA/QC; read-out: Ref Kj
Vasopressin, V1A = Vasopressin, V1A (Homo sapiens, UniProt P37288); assay: Vasopressin, V1A (Human); [125I]-Via Antagonist; format: binding; conditions: read-out: Ref Kj
Sequence of Vasopressin, V1A (P37288 whole entry): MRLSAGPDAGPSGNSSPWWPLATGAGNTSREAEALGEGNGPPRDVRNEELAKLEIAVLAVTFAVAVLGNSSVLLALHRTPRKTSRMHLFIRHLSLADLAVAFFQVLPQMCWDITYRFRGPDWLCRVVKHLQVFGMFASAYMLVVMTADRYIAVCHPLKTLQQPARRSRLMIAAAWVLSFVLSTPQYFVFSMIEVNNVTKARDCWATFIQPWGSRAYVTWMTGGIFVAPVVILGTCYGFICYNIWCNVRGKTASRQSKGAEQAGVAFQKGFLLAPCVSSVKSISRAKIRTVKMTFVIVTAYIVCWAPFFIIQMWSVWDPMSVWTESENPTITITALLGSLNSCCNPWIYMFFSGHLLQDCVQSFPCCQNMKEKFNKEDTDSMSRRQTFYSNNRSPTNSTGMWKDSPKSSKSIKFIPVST

Cannabinoid, CB1 = target: T6, Cannabinoid, CB1 (Homo sapiens, UniProt P21554); assay: Cannabinoid, CB1 (Human recombinant); [3H]-CP55940; format: binding
T6 construct: expressed in transfected cells
T6 sequence (P21554 whole entry): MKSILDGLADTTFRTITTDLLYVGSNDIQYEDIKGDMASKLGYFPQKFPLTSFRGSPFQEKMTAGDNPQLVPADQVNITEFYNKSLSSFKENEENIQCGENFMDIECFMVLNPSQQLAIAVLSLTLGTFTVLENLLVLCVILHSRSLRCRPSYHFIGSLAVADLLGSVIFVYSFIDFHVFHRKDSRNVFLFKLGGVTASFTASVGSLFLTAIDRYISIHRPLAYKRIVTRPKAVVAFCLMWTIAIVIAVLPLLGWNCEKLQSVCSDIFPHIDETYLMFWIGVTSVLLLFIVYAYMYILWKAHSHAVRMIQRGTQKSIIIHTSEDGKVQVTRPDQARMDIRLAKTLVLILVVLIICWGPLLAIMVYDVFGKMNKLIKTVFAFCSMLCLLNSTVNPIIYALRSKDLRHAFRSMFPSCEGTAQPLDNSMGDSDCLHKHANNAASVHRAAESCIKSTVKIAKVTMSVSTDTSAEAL

With CC(C)C[C@@H]1NC(=O)[C@H](C)NC(=O)[C@H]([C@@H](C)O)NC(=O)[C@H](CCC(=O)O)NC(=O)[C@@H]2CCCN2C(=O)[C@H](C)NC(=O)[C@H](CCCCN)NC(=O)[C@@H]2CSSC[C@@H](C(=O)N[C@@H](CCC(N)=O)C(=O)N[C@@H](CCC(N)=O)C(=O)N[C@@H](Cc3cnc[nH]3)C(N)=O)NC(=O)[C@H](CCCNC(=N)N)NC(=O)[C@H](CCCNC(=N)N)NC(=O)[C@H](C)NC(=O)[C@H](CSSC[C@H](N)C(=O)N[C@@H](CC(N)=O)C(=O)N2)NC1=O [Apamin] as the compound, how does the Ki [1] read?
Its Ki is 0.0463 nM.

For CCCCC/C=C\C\C=C/C=C/C=C/[C@@H](SC[C@H](N)C(=O)NCC(=O)O)[C@@H](O)CCCC(=O)O [LTD4], which Ki (Leukotrine D4, LTB4) is on record?
Its Ki is 8.85 nM.

CN1[C@@H]2CC[C@H]1C[C@@H](OC(=O)c1cc(Cl)cc(Cl)c1)C2 [MDL 72222] was tested. Which Ki (Serotonin, 5HT3) did it give?
The Ki was 8.3 nM.

With CCCCC/C=C\C[C@@H](O)/C=C/C=C/C=C\[C@@H](O)CCCC(=O)O [LTB4] as the compound, how does the Ki (Leukotrine B4, LTB4) read?
The Ki was 0.526 nM.

How did the Ki (Glutamate Transport) turn out when N[C@H](CC(=O)O)C(=O)O [D-Aspartic Acid] was run?
The Ki was 6540 nM.

With Substance P as the compound, how does the Ki (Neurokinin, NK1) read?
Its Ki is 13 nM.

Which Ki [2] does the source give for NOCC(=O)O [Aminooxyacetic acid] here?
Its Ki is 0.504 nM.

With Calyculin as the compound, how does the Ki [3] read?
The Ki was 0.722 nM.

For C[N+](C)(C)CCC(=O)c1ccc2ccccc2c1 [beta-NETA], which Ki [4] is on record?
The Ki was 425 nM.

Which Ki [5] does the source give for CCCCCCCCCCCCCCCCOC[C@H](COP(=O)([O-])OCC[N+](C)(C)C)OC(C)=O [C16 PAF] here?
The Ki was 7.69 nM.

For VIP, which Ki [6] is on record?
The Ki was 1.9 nM.

How did the Ki [7] turn out when NCCNC(=O)c1ncsc1-c1cccc(F)c1 [Ro 41-1049 HCl] was run?
The Ki was 1.08 nM.

With (3MeHis2) TRH as the compound, how does the Ki [8] read?
Its Ki is 175 nM.

For CCCN1CCC[C@H](c2cccc(O)c2)C1 [R(+)-3-PPP HCl], which Ki (Sigma 1) is on record?
The Ki was 1.27 nM.

With C[C@H](N)C(=O)NCC(=O)N[C@H]1CSSC[C@@H](C(=O)O)NC(=O)[C@H](CO)NC(=O)[C@H]([C@@H](C)O)NC(=O)[C@H](Cc2ccccc2)NC(=O)[C@H]([C@@H](C)O)NC(=O)[C@H](CCCCN)NC(=O)[C@H](Cc2c[nH]c3ccccc23)NC(=O)[C@H](Cc2ccccc2)NC(=O)[C@H](Cc2ccccc2)NC(=O)[C@H](CC(N)=O)NC(=O)[C@H](CCCCN)NC1=O [Somatostatin] as the compound, how does the Ki [9] read?
The Ki was 0.768 nM.

How did the Ki (Elastase) turn out when C[C@H]1[C@H](C)CC[C@]2(C(=O)O)CC[C@]3(C)C(=CC[C@@H]4[C@@]5(C)CC[C@H](O)C(C)(C)[C@@H]5CC[C@]43C)[C@H]12 [Ursolic Acid] was run?
The Ki was 2320 nM.

What does the source list for Ammonium Molybdate?
Ki [10]: 30.9 nM; Ki [11]: 117 nM; Ki [12]: 90500 nM; Ki [13]: 41.3 nM; Ki [14]: 313 nM

w-Conotoxin GVIA was tested. Which Ki (Calcium Channel, Type N) did it give?
The Ki was 0.0124 nM.

O=[N+]([O-])c1ccc(CSc2ncnc3c2ncn3[C@@H]2O[C@H](CO)[C@@H](O)[C@H]2O)cc1 [NBTI] was tested. Which Ki [15] did it give?
Its Ki is 0.331 nM.

How did the Ki (Vasopressin, V1A) turn out when (Phe)(Me)2A6,8,L9AVP was run?
Its Ki is 0.128 nM.

How did the Ki (Cannabinoid, CB1) turn out when CCCCCCC(C)(C)c1cc(O)c2c(c1)OC(C)(C)[C@@H]1CC=C(CO)C[C@@H]21 [HU-210] was run?
Its Ki is 0.3 nM.
